In patent publication US9889145B2, “Methods to treat infections” (priority 2013, dated 2018):
“Also recorded” adds a separate entry of the source.

Key:
Arg2 [1] = test: Arg2 in lung and liver of Bt-infected mice (Western blot, immunohistochemical staining); assay type: in vivo
arginase = test: Quantitative assay for urea in lungs of Bt-infected mice (indirect measurement of Arg activity); assay type: in vivo; conditions: 80 mg/kg Celecoxib vs mock-treated Bt-infected mice
IL-1α, IL-6 and KC = IL-1α, IL-6 and KC in the lungs of Bt-infected mice; assay type: in vivo; conditions: 80 mg/kg Celecoxib vs mock; 48 hours post-infection with Bt
[2] = tested on: BALB/c mice infected with B. thailandensis; conditions: mouse, in vivo
B. thailandensis = tested on: B. thailandensis; set-up: species or system Burkholderia thailandensis; conditions: in vivo
PGE-2 [3] = tested on: PGE-2; set-up: species or system mice; conditions: mouse, in vivo
[4] = tested on: Burkholderia thailandensis (Bt); assay type: cell-based
PGE-2 [5] = assay type: cell-based, murine
B. pseudomallei [6] = assay type: cell-based, Burkholderia pseudomallei
NO [7] = assay type: cell-based, mice
NO [8] = assay type: cell-based, mice; remark: listed apart in the source
iNOS [9] = assay type: cell-based
iNOS [10] = assay type: cell-based, mice; conditions: 4 hours
Arg2 [11] = assay type: cell-based, mice
[12] = tested on: Burkholderia pseudomallei strain 1026b; assay type: in vivo
Arg2 [13] = tested on: Arg2; set-up: species or system mice; conditions: mouse, in vivo, 15 mg/kg
PGE-2 [14] = assay type: in vivo, mice; conditions: n=2
B. pseudomallei [15] = assay type: in vivo, Burkholderia pseudomallei; conditions: n=2
[16] = daily maximum dose of 15 mg/kg in mice, cited from earlier work
CD4+ T-cells = test: IFN-γ and IL-2 production by stimulated CD4+ T-cells; assay type: cell-based, mice; conditions: low dose (100 pg/ml) or high dose (10,000 pg/ml) PGE-2; Day 6; vs stimulated

Structure (SMILES): Cc1ccc(-c2cc(C(F)(F)F)nn2-c2ccc(S(N)(=O)=O)cc2)cc1 [Celecoxib, 4-[5-(4-methylphenyl)-3-(trifluoromethyl)pyrazol-1-yl]benzenesulfonamide]
- number of Arg2 positively-stained cells in lungs (immunohistochemical staining) (Arg2 [1]; 80 mg/kg Celecoxib vs mock-treated Bt-infected mice): reduction in the number of Arg2 positively-stained cells
- Arg2 in the lungs (Western blot) (Arg2 [1]; 80 mg/kg Celecoxib vs mock-treated mice, 48 hours after pulmonary Bt infection): reduction in Arg2 in the lungs
- urea levels in the lungs (arginase): lower
- IL-1α in the lungs (IL-1α, IL-6 and KC): reduced
- IL-6 in the lungs (IL-1α, IL-6 and KC): reduced
- KC in the lungs (IL-1α, IL-6 and KC): reduced
- lung inflammation (histological examination) [2]: reduced
- bacterial burden in liver (B. thailandensis): reduction in bacterial burdens
- bacterial burden in lung (B. thailandensis): reduction in bacterial burdens
- bacterial burden in spleen (B. thailandensis): reduction in bacterial burdens
- PGE-2 in the lungs (ELISA) (PGE-2 [3]): PGE-2 reduction

Structure (SMILES): CS(=O)(=O)Nc1ccc([N+](=O)[O-])cc1OC1CCCCC1 [NS398, N-[2-(cyclohexyloxy)-4-nitrophenyl]-methanesulfonamide]
- survival of intracellular Bt [4]: decrease in survival of intracellular bacteria
- PGE-2 levels in supernatants (PGE-2 [5]): reduced
- Bps intracellular survival (B. pseudomallei [6]): reduction in Bps survival; also recorded: enhanced intracellular killing of B. pseudomallei
- NO production (NO [7]): higher production of NO
- NO production (nitrite) (NO [8]): higher production of NO; also recorded: increase in nitrite
- iNOS expression (iNOS [9]): two-fold increase in iNOS expression
- iNOS mRNA expression (iNOS [10]): no differences in iNOS mRNA expression; also recorded: did not observe any apparent change in iNOS mRNA expression
- Arg2 expression (Arg2 [11]): reduction in Arg2 expression
- bacteria recovered from the lungs at the study endpoint ([12]; in vivo): No bacteria were recovered
- bacteria recovered from the lungs of the two animals euthanized on day 5 and day 7 (hind leg paralysis) ([12]; in vivo): No bacteria were recovered
- colonization of spleen and liver ([12]; in vivo): 20-100 cfu
- first signs of illness ([12]; in vivo): ≥ 5
- lung bacteria of the one exceptional animal at the study endpoint ([12]; in vivo): 104 cfu
- weight loss throughout the study ([12]; in vivo): no evidence of weight loss
- survival / recovery over 10 days ([12]; n=8): appeared to have recovered from the infection; also recorded: protection against lethal pulmonary melioidosis
- Arg2 expression in lungs (Western blot, densitometry) (Arg2 [13]): decreases
- PGE-2 concentration in lung tissue (PGE-2 [14]): reduce PGE-2 concentration in lung tissue
- PGE-2 concentration in stomach tissue (PGE-2 [14]): reduce PGE-2 concentration in stomach tissue
- growth of B. pseudomallei in lung tissue (CFU/mg) (B. pseudomallei [15]): suppresses the growth of B. pseudomallei in lung tissue
- growth of B. pseudomallei in stomach tissue (CFU/mg) (B. pseudomallei [15]): suppresses the growth of B. pseudomallei in stomach tissue
- lung PGE-2 ([16]; previously documented pharmacological efficacy): reducing lung PGE-2
- associated toxicity ([16]; previously documented): without any associated toxicity

Structure (SMILES): CCCCC[C@H](O)/C=C/[C@H]1[C@H](O)CC(=O)[C@@H]1C/C=C\CCCC(=O)O [PGE-2]
- NO levels after adding PGE-2 (NO [7]): reduced NO levels
- NO (nitrite) levels after adding PGE-2 (NO [8]): reduced NO levels; also recorded: reduced nitrite levels
- iNOS mRNA expression (iNOS [10]): no differences in iNOS mRNA expression; also recorded: did not observe any apparent change in iNOS mRNA expression
- increase in Arg2 expression (Arg2 [11]): 376 fold
- IFN-gamma production by stimulated CD4+ T-cells (CD4+ T-cells): reduces
- IL-2 production by stimulated CD4+ T-cells (CD4+ T-cells): reduces

Structure (SMILES): N=C(NO)NCC[C@H](N)C(=O)O [nor-NOHA, nor-N^ω-hydroxy-L-arginine]
- Bt intracellular survival [4]: decrease
- Bps intracellular survival (B. pseudomallei [6]): decrease in B. pseudomallei intracellular survival
- NO levels (NO [7]): increase in NO levels
- NO (nitrite) levels (NO [8]): increase in NO levels; also recorded: increase in nitrite levels
